The values that follow come from ChEMBL document CHEMBL4316582, “Nitro-Group-Containing Drugs” (J Med Chem, 2019).

SMILES strings stand for the structures. ≈ marks a conversion by molar mass, not a printed value.

The term MIC denotes the lowest concentration found to suppress growth. High values mean a less susceptible organism, low ones a more susceptible organism. As usually defined, the IC50 is the concentration that inhibits the measured activity by half. In general, half-life refers to the time in which the quantity being followed falls by half. One may read the Tmax as the time from dosing to the highest level. For orientation: Cmax means the maximum level reached in the sampled fluid or tissue. One may read the clearance as the volume of plasma or blood freed of the substance per unit of time. Higher therefore signals a high capacity for elimination.

In data set [1] the test system is Mycobacterium tuberculosis. Briefly: Antitubercular activity against Mycobacterium tuberculosis H37Ra after 8 days by visual analysis. In kind it is functional. The conditions noted are these: 192 h.
In data set [2] the target is T1, Quinone oxidoreductase (Homo sapiens, UniProt Q08257).
T1 sequence (Q08257 whole entry): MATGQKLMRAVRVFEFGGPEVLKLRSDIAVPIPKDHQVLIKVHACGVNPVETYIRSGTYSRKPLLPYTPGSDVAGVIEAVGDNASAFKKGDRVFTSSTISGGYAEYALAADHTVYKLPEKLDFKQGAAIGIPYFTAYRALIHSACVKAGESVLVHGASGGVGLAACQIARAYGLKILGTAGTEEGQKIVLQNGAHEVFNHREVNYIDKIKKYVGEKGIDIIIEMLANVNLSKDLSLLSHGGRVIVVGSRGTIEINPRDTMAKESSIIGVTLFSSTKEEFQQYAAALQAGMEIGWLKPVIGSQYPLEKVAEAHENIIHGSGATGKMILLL
Briefly: Inhibition of human Quinone oxidoreductase.

Data set [3] relates to NCI-H460. The data set is described as follows: Cytotoxicity against human NCI-H460 cells assessed as reduction in cell viability after 2 hrs in presence of AZD7765 by Alamar blue assay. In kind it is functional, cell-based. The conditions noted are these: NCI-H460, 2 h.
The test system of data set [4] is DU-145. Briefly: Cytotoxicity against human DU145 cells assessed as reduction in cell viability after 2 hrs in presence of AZD7765 by Alamar blue assay. In kind it is functional, cell-based. The conditions noted are these: DU-145, 2 h. For orientation: Alamar Blue is a resazurin reagent that responds to reducing activity.
Data set [5] concerns HT-29. The data set is described as follows: Cytotoxicity against human HT-29 cells assessed as reduction in cell viability after 2 hrs in presence of AZD7765 by Alamar blue assay. In kind it is functional, cell-based. The conditions noted are these: HT-29, 2 h.
The test system of data set [6] is HeLa. The data set is described as follows: Cytotoxicity against human HeLa cells assessed as reduction in cell viability after 2 hrs in presence of AZD7765 by Alamar blue assay. It counts as functional, cell-based.
The subject of data set [7] is NCI-H460. Briefly: Cytotoxicity against human NCI-H460 cells assessed as reduction in cell viability after 2 hrs in presence of PF477736 by Alamar blue assay. In kind it is functional, cell-based. Conditions: NCI-H460, 2 h.
Data set [8] concerns HT-29. Briefly: Cytotoxicity against human HT-29 cells assessed as reduction in cell viability after 2 hrs in presence of PF477736 by Alamar blue assay. It counts as functional, cell-based. Conditions: HT-29, 2 h.
Data set [9] deals with NCI-H460. Briefly: Cytotoxicity against human NCI-H460 cells assessed as reduction in cell viability after 2 hrs in presence of LY2603618 by Alamar blue assay. It counts as functional, cell-based. Conditions: NCI-H460, 2 h.
The subject of data set [10] is HeLa. Briefly: Cytotoxicity against human HeLa cells assessed as reduction in cell viability after 2 hrs in presence of LY2603618 by Alamar blue assay. In kind it is functional, cell-based.
The subject of data set [11] is HT-29. Briefly: Cytotoxicity against human HT-29 cells assessed as reduction in cell viability after 2 hrs in presence of LY2603618 by Alamar blue assay. It counts as functional, cell-based. The conditions noted are these: HT-29, 2 h.
The nature of data set [12]: Inhibition of Escherichia coli nitroreductase F179 mutant.
Data set [13] concerns the target T2, Oxygen-insensitive NAD(P)H nitroreductase (Escherichia coli K-12, UniProt P38489).
T2 sequence (P38489 whole entry): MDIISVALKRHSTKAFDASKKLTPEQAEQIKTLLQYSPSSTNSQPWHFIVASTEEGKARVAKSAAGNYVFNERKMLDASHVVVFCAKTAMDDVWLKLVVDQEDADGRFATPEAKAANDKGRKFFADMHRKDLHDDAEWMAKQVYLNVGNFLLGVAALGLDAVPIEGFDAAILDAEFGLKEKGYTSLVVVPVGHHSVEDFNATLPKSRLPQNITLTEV
Briefly: Inhibition of Escherichia coli nitroreductase expressed in human HCT116 cells. It counts as cell-based.

Data set [14] concerns the target T2, Oxygen-insensitive NAD(P)H nitroreductase. Briefly: Susbtrate activity at Escherichia coli nitroreductase assessed as half life. In kind it is ADME.
Data set [15] relates to NCI-H460. The data set is described as follows: Cytotoxicity against human NCI-H460 cells assessed as reduction in cell viability after 2 hrs under normoxic conditions by Alamar blue assay. It counts as functional, cell-based. Conditions: NCI-H460, 2 h.
Data set [16] concerns NCI-H460. The data set is described as follows: Cytotoxicity against human NCI-H460 cells assessed as reduction in cell viability after 2 hrs under hypoxic conditions by Alamar blue assay. It counts as functional, cell-based. The conditions noted are these: NCI-H460, 2 h.
Data set [17] in a line: Tmax in mouse at 10 mg/kg. Conditions: in vivo. In kind it is ADME, organism-based.
Data set [18] in a line: Half life in mouse at 10 mg/kg. It counts as ADME, organism-based. Conditions: in vivo.
Data set [19] is described as follows: Cmax in mouse at 10 mg/kg. Conditions: in vivo. In kind it is ADME, organism-based. Also on record: dose 10 mg/kg.
Data set [20] is described as follows: Clearance in mouse at 10 mg/kg. It counts as ADME, organism-based. Conditions: in vivo.

`COc1ccc(CNC(=O)c2ccc([N+](=O)[O-])o2)cc1OC` returned an MIC in data set [1] of 0.2 µM (≈ 0.0613 µg/mL).
Compound `O=[N+]([O-])c1ccc(C2CCOP(=O)(N(CCCl)CCCl)N2)cc1` (stereo unspecified) showed an IC50 in data set [2] of 48 µM.
For the compound `Cn1c(COP(=O)(NCCCl)NCCCl)cnc1[N+](=O)[O-]`, the IC50 in data set [3] worked out at 25 mM; in data set [4], 80 mM; in data set [5], 39 mM; in data set [6], 95 mM; in data set [7], 19 mM; in data set [8] it was 57 mM. Moreover, the results for the IC50 in data set [9], in [10] and in data set [11] were 22 mM, 90 mM and 46 mM, respectively.
Turning to `O=[N+]([O-])c1ccc2c(c1)OP(=O)(N(CCCl)CCCl)NC2` (stereo unspecified), the values for the IC50 in data set [12], in data set [13] and in [2] were 61 µM, 48 µM and 48 µM, respectively. The half-life in data set [14] was found to be 11 min.
Consider `COc1cccc2c1C(=O)c1c(O)c3c(c(O)c1C2=O)C[C@@](O)(C(C)=O)C[C@@H]3O[C@H]1C[C@H](NCOCCn2ccnc2[N+](=O)[O-])[C@H](O)[C@H](C)O1`, for which the IC50 in data set [15] was determined as 9.8 µM; in [16], 23 nM. Besides, in [17], the Tmax is 5 min. The same compound registered a half-life in data set [18] of 28.8 min. This compound also showed a Cmax in data set [19] of 1820 ng/mL. Besides, the clearance in data set [20] was determined as 188 mL/min/kg.
